# Measurements from the supplement of paper PMC11003180.
# Assays:
# Assay in all cases: drug sensitivity score (DSS) from 5-dose viability curve (DSS (area-based score, 0 = no response)); higher = more sensitive (stronger viability inhibition); extreme values may be limits of the assay
# [1] = test system: MDCK wild-type - doxycycline; details: doxycycline: none; 72 h
# Summary of the method: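 Parental MDCK cells without doxycycline were dispensed at 2000 cells/well onto pre-spotted 384-well plates. The plates held an oncology library of 528 drugs at five doses (1-10,000 nM) and were incubated 72 h at 37 °C. Viability was read as CellTiter-Glo luminescence and scaled per plate between vehicle and positive controls. Drug sensitivity scores came from dose-response curve fits in the Breeze pipeline.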
# [2] = test system: MDCK p60AmotL2-inducible + doxycycline (p60AmotL2 expressing); details: doxycycline: 10 ng/mL; 72 h
# Summary of the method: (§1)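 Pre-spotted 384-well plates held 528 oncology drugs, each at five doses from 1 to 10,000 nM. Parental and doxycycline-inducible MDCK cells, exposed beforehand to 10 ng/mL doxycycline in the medium, were added at 2000 cells/well and incubated 72 h at 37 °C. Viability came from CellTiter-Glo luminescence normalized per plate to vehicle and positive controls, and the Breeze pipeline fitted dose-response curves to give drug sensitivity scores.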
# [3] = test system: MDCK wild-type + doxycycline; details: doxycycline: 10 ng/mL; 72 h
# Summary of the method: as §1
SMILES,drug sensitivity score [1],drug sensitivity score [2],drug sensitivity score [3]
O=C(O)C1(C(=O)O)CCC1.[NH2-].[NH2-].[Pt+2] [Carboplatin],3.6,5,4.4
CNC(=O)c1ccc(-c2cnc3ncc(Cc4ccc5ncccc5c4)n3n2)cc1F [Capmatinib],0,0,0
CC[C@@]1(O)C(=O)OCc2c1cc1n(c2=O)Cc2cc3c(CN(C)C)c(O)ccc3nc2-1 [Topotecan],8.1,11.5,10.1
CS(=O)(=O)c1ccc(-c2cnc(N)c(C(=O)Nc3ccccc3)n2)cc1 [VE-821],0,0,0
O=C(/C=C\n1cnc(-c2cc(C(F)(F)F)cc(C(F)(F)F)c2)n1)NNc1ccccn1 [Verdinexor],9.2,10.1,10.6
COc1ccc(-c2ccc3c(N4CCOC[C@@H]4C)nc(N4CCOC[C@@H]4C)nc3n2)cc1CO [AZD8055],14.9,22.5,17.8
Nc1ccccc1NC(=O)c1ccc(CNc2nccc(-c3cccnc3)n2)cc1 [Mocetinostat],8.1,6.2,8.4
CNC(=O)c1cccc(-c2ccc3c(N4CCOC[C@@H]4C)nc(N4CCOC[C@@H]4C)nc3n2)c1 [Vistusertib],7.5,15.5,10.5
COc1ccc(S(=O)(=O)Nc2cccnc2Nc2ccc(O)cc2)cc1 [ABT-751],15.3,16,16.6
N#Cc1ccc(C(c2ccc(C#N)cc2)n2cncn2)cc1 [Letrozole],0,0,0
CCN(CC)CCCC(C)Nc1c2ccc(Cl)cc2nc2ccc(OC)cc12 (stereo not given) [Mepacrine],10.5,15.2,16.2
Cc1cnc(-c2ccccc2C(C)C)nc1NCc1ccc(-n2ccnn2)cc1 [ML323],0,1.4,0
N#CC(c1ccnc(OCc2ccc(CN3CCOCC3)cc2)n1)c1nc2ccccc2s1 (stereo not given) [Bentamapimod],1.2,2.1,1.5
CO[C@@]12[C@H](COC(N)=O)C3=C(C(=O)C(C)=C(N)C3=O)N1C[C@@H]1N[C@@H]12 [Mitomycin C],1.2,0,0
CNc1nc(Nc2cn(C(C)(C)C#N)nc2C)ncc1C(F)(F)F [GNE-0877],0,0,0
O=C1CCc2c(Oc3ccc4c(c3)[C@@H]3[C@H](O4)[C@H]3c3nc4cc(C(F)(F)F)ccc4[nH]3)ccnc2N1 [BGB-283],1.6,6.6,5.4
Cc1c(-c2ccc(N3CCc4cccc(C(=O)Nc5nc6ccccc6s5)c4C3)nc2C(=O)O)cnn1CC12CC3CC(CC(C3)C1)C2,0,0,0
CC(O)c1cc(C(=O)N[C@@H](C)Cn2ccc(-c3ccc(C#N)c(Cl)c3)n2)n[nH]1 (stereo not given in full) [ODM-201],0,0,0
Cc1[nH]nc(C(F)(F)F)c1Cc1sc2c(c1C(=O)N1C[C@](C)(O)CO1)c(=O)n(C)c(=O)n2C(C)C [AZD3965],0,4.5,0
CCNCCS(=O)(=O)NC[C@@]1(c2ccccc2)SC(NC(=O)C(C)(C)C)=NN1C(=O)C(C)(C)C [Litronesib],22,26.6,25.1
CC(C)(C)Cn1c(N)nc2ccc(-c3[nH]c(C(C)(C)C)nc3-c3ccc(F)cc3)nc21 [Ralimetinib],0,4.4,3.5
Nc1cccc2c1CN(C1CCC(=O)NC1=O)C2=O (stereo not given) [Lenalidomide],0,0,0
Cc1ccc(-c2cc(C(F)(F)F)nn2-c2ccc(S(N)(=O)=O)cc2)cc1 [Celecoxib],0,0,0

SMILES,drug sensitivity score [1],drug sensitivity score [2],drug sensitivity score [3]
CCc1nc(C(N)=O)c(Nc2ccc(N3CCC(N4CCN(C)CC4)CC3)c(OC)c2)nc1NC1CCOCC1 [Gilteritinib],0.9,1,0.1
Cc1c(C(=O)Nc2ccc(N3C[C@@H](C)O[C@@H](C)C3)nc2)cccc1-c1ccc(OC(F)(F)F)cc1 [Sonidegib],0.6,0,0
CC(=O)Nc1ccc(C(=O)Nc2ccccc2N)cc1 [Tacedinaline],0,0,0
CN[C@@H]1C[C@H]2O[C@@](C)([C@@H]1OC)n1c3ccccc3c3c4c(c5c6ccccc6n2c5c31)C(=O)N[C@H]4O [UCN-01],18.1,14.5,18.5
Cc1c(F)cc(C(=O)NC2CC2)cc1-c1ccc(C(=O)NCC(C)(C)C)cn1 [Losmapimod],0,0,0
COCC[n+]1c2c(n(Cc3cnccn3)c1C)C(=O)c1ccccc1C2=O [Sepantronium bromide],26.6,34.3,30.1
Cn1cc(-c2ccc(F)c(C(F)(F)F)c2)nc1C1CCN(c2ncnc3[nH]ncc23)CC1,0,3,0
O=c1[nH]c(=O)n([C@H]2C[C@H](O)[C@@H](CO)O2)cc1C(F)(F)F [Trifluridine],1.4,2.6,1.4
CN1CC[C@H](c2c(O)cc(O)c3c(=O)cc(-c4ccccc4Cl)oc23)[C@H](O)C1 [Alvocidib],21.5,18.3,20.9
Cc1ccc(Nc2nccc(N(C)c3ccc4c(C)n(C)nc4c3)n2)cc1S(N)(=O)=O [Pazopanib],0,0,0
O=C(Nc1ccc(OC(F)(F)Cl)cc1)c1cnc(N2CC[C@@H](O)C2)c(-c2cc[nH]n2)c1 [Asciminib],0,0,0
Cc1ccc(C(=O)Nc2ccc(Oc3cc4cnn(C)c4cc3-c3cn[nH]c3)c(F)c2)c(=O)n1-c1ccc(F)cc1 [Merestinib],0.9,0,0
CCn1c(=O)c(-c2ccc(Cl)cc2Cl)cc2cnc(Nc3ccc(N4CCNCC4)c(F)c3)nc21 [FRAX486],1.7,2.3,0
O=C(Nc1cccc(Nc2ncc(Br)c(NCCc3cnc[nH]3)n2)c1)N1CCCC1 [BX-912],0.1,4.1,0.8
CCN(CC)CCCC(C)Nc1ccnc2cc(Cl)ccc12 (stereo not given) [Chloroquine],5.1,5.2,4.5
Cc1ccc(NC(=O)c2ccc(CN3CC[C@H](N(C)C)C3)c(C(F)(F)F)c2)cc1Nc1nccc(-c2cncnc2)n1 [Bafetinib],0,0,0
O=C(CCCCCCC(=O)Nc1ccc([C@H]2O[C@@H](CSc3nc(-c4ccccc4)c(-c4ccccc4)o3)C[C@@H](c3ccc(CO)cc3)O2)cc1)NO [Tubacin],0,0,0
CC(C)C[C@H](NC(=O)[C@@H](COC(C)(C)C)NC(=O)[C@H](Cc1ccc(O)cc1)NC(=O)[C@H](CO)NC(=O)[C@H](Cc1c[nH]c2ccccc12)NC(=O)[C@H](Cc1cnc[nH]1)NC(=O)[C@@H]1CCC(=O)N1)C(=O)N[C@@H](CCCNC(=N)N)C(=O)N1CCC[C@H]1C(=O)NNC(N)=O [Goserelin],0,0,0
C[C@H]1CN(C2COC2)CCN1c1ccc(Nc2cc(-c3ccnc(N4CCn5c(cc6c5CC(C)(C)C6)C4=O)c3CO)cn(C)c2=O)nc1 [GDC-0853],0,0,0
COc1cc2c(Oc3ccc4[nH]c(C)cc4c3F)ncnc2cc1OCCCN1CCCC1 [Cediranib],0,0.3,0
COc1cc(Nc2c(C#N)cnc3cc(OCCCN4CCN(C)CC4)c(OC)cc23)c(Cl)cc1Cl [Bosutinib],7.5,14.1,10.4
CCNC(=O)C[C@@H]1N=C(c2ccc(Cl)cc2)c2cc(OC)ccc2-n2c(C)nnc21 [Molibresib],0.9,9.5,2.9
